Results: BindingDB's records for doi:10.1016/S0960-894X(97)00246-1 (1997)

Tests used:
[1] = molecular target: Group IIA secretory phospholipase A2 (Homo sapiens); assay: Compound was measured for the inhibitory activity against Secretory phospholipase A 2 (s-PLA2)
[2] = molecular target: Group IIA secretory phospholipase A2 (Homo sapiens); assay: Compound was measured for the inhibitory activity against secretory-phospholipase A2 (s-PLA2)

IC50 [1]	IC50 [2]	Compound
1.7 µM	–	CCCCCCCOc1ccc(C(=O)O)cc1CC(=O)C(F)(F)F [4-Heptyloxy-3-(3,3,3-trifluoro-2-oxo-propyl)-benzoic acid]
2.4 µM	–	O=C(O)c1ccc2cccc(C(=O)C(F)(F)F)c2c1 [8-(2,2,2-Trifluoro-acetyl)-naphthalene-2-carboxylic acid]
–	3.9 µM	CCCCCCCCCCCCCCCCCCOP(=O)(O)c1cccc2ccc(C(=O)O)cc12 [8-(Hydroxy-octadecyloxy-phosphoryl)-naphthalene-2-carboxylic acid]
4.5 µM	–	CCCCCCCCCCOP(=O)(O)c1cc(OCc2ccccc2)ccc1/C=C/C(=O)O [(E)-3-[4-Benzyloxy-2-(decyloxy-hydroxy-phosphoryl)-phenyl]-acrylic acid]
> 200 µM	–	CCCCCCCCOP(=O)(O)c1cccc2ccc(C(=O)O)cc12 [8-(Hydroxy-octyloxy-phosphoryl)-naphthalene-2-carboxylic acid]
